US20170008888A1 (KYORIN PHARMACEUTICAL CO., LTD., priority 2014, published 2017)

Key:
[1] = biological target: T1, panel of 40 bromodomain-containing proteins (Homo sapiens, UniProt Q09472); assay: Bromodomain binding assay (T7 phage, qPCR): further proteins of the panel; details: EP300
T1 construct: T7 phage strains displaying bromodomains were grown in parallel; made in house; host or cells: E. coli host derived from BL21, infected with T7 phage
Procedure: (§1) T7 phage strains displaying bromodomains were grown in parallel in 24-well blocks in an E. coli host derived from the BL21 strain. E. coli were grown to log-phase and infected with T7 phage from a frozen stock (multiplicity of infection=0.4) and incubated with shaking at 32° C. until lysis (90-150 minutes). The lysates were centrifuged (5,000×g) and filtered (0.2 μm) to remove cell debris. […] The liganded beads were blocked with excess biotin and washed with blocking buffer (SeaBlock (Pierce), 1% BSA, 0.05 Tween 20, 1 mM DTT) to remove unbound ligand and to reduce non-specific phage binding. […] Test compounds (T62 and 46) were prepared as 1000× stocks in 100% DMSO and subsequently diluted 1:10 in monoethylene glycol (MEG) to create stocks at 100× the screening concentration (resulting stock solution is 10% DMSO/90% MEG). The compounds were then diluted directly into the assays such that the final concentration of DMSO and MEG were 0.1% and 0.9%, respectively. All reactions were performed in polystyrene 96-well plates in a final volume of 0.135 ml. […] The bromodomain concentration in the eluates was measured by qPCR. Compounds were assayed for binding activity against a panel of 40 bromodomain-containing proteins.

[2] = biological target: T2, panel of 40 bromodomain-containing proteins (Homo sapiens, UniProt Q92793); assay: as above; details: CREBBP
T2 construct: T7 phage strains displaying bromodomains were grown in parallel; made in house; host or cells: E. coli host derived from BL21, infected with T7 phage
T2 sequence (Q92793 1081-1197): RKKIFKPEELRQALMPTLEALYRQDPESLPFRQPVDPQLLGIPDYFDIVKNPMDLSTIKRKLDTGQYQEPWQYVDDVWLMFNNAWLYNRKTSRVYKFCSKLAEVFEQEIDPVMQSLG
Procedure: as §1

BRD2 = biological target: T3, BRD2 (Homo sapiens, UniProt P25440); assay: Bromodomain binding assay: BRD2
T3 construct: read out by qPCR of the phage DNA
T3 sequence (P25440 whole entry): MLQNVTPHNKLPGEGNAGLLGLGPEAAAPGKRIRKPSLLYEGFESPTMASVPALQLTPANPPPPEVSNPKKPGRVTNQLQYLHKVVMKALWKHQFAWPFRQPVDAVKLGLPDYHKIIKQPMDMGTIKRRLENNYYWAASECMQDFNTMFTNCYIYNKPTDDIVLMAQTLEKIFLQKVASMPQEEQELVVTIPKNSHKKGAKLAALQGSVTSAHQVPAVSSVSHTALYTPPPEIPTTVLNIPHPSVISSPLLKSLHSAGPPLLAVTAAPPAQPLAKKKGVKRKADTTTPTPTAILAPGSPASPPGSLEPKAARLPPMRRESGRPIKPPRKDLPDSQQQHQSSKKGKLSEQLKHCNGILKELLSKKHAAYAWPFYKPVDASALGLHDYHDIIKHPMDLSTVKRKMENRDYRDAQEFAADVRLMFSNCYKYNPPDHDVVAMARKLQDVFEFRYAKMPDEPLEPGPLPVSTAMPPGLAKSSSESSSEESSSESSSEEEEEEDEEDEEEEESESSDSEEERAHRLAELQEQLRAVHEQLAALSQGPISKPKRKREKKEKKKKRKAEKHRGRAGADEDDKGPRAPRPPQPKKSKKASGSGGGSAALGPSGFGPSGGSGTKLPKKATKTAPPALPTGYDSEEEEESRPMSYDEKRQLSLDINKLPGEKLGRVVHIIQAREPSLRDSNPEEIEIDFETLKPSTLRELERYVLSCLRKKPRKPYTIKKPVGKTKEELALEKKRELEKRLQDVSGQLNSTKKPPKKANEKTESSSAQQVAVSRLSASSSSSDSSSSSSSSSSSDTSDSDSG
Procedure: as §1

BRD3 = biological target: T4, BRD3 (Homo sapiens, UniProt Q15059); assay: Bromodomain binding assay: BRD3
T4 construct: read out by qPCR of the phage DNA
T4 sequence (Q15059 whole entry): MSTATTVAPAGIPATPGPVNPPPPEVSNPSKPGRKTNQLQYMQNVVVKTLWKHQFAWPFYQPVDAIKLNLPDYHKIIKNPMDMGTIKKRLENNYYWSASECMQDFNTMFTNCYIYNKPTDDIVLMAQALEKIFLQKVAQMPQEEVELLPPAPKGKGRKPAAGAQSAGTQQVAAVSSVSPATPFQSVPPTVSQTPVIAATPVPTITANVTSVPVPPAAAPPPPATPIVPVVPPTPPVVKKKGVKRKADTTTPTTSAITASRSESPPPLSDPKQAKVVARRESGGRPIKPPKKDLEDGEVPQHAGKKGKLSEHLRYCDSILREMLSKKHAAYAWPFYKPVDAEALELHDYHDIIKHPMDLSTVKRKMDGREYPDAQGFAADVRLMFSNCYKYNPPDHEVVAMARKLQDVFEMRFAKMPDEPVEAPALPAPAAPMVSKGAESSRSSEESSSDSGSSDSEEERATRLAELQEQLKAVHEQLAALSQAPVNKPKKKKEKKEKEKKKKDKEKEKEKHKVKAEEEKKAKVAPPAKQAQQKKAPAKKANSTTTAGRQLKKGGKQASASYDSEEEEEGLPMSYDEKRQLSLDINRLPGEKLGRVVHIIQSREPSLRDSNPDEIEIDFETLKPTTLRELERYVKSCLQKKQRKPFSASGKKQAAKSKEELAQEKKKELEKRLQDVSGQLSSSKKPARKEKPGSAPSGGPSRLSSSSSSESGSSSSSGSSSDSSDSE
Procedure: as §1

BRD8 = biological target: T5, BRD8 (Homo sapiens, UniProt Q9H0E9); assay: Bromodomain binding assay: BRD8
T5 construct: read out by qPCR of the phage DNA
T5 sequence (Q9H0E9 whole entry): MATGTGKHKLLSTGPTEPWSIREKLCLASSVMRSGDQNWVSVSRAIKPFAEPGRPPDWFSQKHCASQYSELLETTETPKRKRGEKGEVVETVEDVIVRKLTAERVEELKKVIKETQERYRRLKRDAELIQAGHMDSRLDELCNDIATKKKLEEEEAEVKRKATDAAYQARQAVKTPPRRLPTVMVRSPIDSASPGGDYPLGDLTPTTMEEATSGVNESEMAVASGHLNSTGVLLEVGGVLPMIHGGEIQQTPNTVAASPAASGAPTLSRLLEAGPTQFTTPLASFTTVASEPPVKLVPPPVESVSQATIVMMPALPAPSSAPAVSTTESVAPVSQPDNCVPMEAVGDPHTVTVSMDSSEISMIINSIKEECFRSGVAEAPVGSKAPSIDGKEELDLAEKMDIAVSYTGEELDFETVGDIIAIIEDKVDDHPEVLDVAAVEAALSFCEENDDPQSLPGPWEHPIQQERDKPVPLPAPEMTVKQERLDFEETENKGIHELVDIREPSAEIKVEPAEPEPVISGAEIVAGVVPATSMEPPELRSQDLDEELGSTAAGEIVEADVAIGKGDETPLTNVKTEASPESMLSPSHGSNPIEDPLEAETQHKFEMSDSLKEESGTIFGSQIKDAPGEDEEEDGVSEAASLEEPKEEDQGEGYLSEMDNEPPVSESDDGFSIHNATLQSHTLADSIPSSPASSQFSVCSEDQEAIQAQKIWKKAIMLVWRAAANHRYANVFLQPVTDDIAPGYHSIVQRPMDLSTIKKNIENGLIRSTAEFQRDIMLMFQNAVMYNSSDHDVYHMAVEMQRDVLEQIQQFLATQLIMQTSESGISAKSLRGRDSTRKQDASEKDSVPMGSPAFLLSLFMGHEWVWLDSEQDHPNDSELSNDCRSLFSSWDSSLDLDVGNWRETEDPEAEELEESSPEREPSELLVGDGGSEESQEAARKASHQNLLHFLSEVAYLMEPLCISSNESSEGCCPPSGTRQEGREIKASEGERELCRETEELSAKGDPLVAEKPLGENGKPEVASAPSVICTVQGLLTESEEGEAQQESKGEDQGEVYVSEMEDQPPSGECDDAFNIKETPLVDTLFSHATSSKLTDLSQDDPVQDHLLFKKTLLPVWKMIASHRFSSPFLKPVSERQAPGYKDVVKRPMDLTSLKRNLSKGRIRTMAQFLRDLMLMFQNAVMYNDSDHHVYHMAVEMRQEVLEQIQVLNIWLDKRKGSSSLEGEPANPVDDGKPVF
Procedure: as §1

PBRM1 = biological target: T6, PBRM1 (Homo sapiens, UniProt Q86U86); assay: Bromodomain binding assay: PBRM1
T6 construct: read out by qPCR of the phage DNA
T6 sequence (Q86U86 whole entry): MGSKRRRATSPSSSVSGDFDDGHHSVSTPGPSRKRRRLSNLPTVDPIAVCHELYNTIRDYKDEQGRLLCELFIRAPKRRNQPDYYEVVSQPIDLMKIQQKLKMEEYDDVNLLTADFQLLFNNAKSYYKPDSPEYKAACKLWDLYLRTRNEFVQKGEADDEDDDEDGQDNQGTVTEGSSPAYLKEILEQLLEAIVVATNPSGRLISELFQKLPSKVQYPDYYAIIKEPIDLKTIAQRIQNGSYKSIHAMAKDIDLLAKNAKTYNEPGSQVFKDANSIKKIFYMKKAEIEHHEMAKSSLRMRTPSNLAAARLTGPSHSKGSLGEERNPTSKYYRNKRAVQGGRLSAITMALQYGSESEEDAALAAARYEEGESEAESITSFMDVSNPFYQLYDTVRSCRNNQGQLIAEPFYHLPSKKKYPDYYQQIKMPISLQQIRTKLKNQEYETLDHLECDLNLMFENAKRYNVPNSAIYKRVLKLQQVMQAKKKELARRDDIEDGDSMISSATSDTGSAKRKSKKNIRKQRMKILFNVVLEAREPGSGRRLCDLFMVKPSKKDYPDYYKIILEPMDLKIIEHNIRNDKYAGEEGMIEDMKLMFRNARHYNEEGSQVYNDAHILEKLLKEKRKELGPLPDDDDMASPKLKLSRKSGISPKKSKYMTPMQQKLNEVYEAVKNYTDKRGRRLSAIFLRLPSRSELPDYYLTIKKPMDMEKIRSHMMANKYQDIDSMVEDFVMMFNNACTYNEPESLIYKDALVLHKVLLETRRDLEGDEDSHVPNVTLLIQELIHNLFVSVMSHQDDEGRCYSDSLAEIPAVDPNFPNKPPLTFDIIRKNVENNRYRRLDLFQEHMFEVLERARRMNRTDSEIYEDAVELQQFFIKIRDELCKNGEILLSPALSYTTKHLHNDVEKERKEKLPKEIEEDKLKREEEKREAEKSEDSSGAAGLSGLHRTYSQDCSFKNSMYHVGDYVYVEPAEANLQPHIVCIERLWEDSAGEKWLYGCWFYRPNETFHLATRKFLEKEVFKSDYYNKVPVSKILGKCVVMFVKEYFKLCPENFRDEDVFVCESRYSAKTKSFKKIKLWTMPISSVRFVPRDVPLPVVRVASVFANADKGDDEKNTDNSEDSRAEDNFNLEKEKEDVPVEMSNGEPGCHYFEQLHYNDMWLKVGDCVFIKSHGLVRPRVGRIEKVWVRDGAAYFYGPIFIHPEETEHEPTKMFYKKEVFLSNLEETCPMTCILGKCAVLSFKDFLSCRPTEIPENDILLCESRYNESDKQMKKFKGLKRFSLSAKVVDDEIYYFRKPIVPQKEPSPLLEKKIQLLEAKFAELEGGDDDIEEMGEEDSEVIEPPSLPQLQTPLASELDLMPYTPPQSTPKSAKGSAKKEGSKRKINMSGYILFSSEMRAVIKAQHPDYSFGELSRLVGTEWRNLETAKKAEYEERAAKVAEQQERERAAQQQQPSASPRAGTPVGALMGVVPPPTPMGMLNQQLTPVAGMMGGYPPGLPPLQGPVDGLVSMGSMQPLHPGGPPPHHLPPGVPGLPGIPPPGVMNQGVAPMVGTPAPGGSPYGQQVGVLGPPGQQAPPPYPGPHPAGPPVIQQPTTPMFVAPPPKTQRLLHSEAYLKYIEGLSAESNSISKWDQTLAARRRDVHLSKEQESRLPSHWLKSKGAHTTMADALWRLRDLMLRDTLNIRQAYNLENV
Procedure: as §1

SMARCA2 = biological target: T7, SMARCA2 (Homo sapiens, UniProt P51531); assay: Bromodomain binding assay: SMARCA2
T7 construct: made in house; host or cells: E. coli host derived from the BL21 strain (T7 phage lysate)
T7 sequence (P51531 1378-1506 limits assumed): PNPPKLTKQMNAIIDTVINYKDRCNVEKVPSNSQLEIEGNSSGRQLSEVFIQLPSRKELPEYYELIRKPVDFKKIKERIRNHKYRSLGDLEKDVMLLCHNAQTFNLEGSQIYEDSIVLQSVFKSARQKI
Procedure: as §1

TRIM24 = biological target: T8, TRIM24 (Homo sapiens, UniProt O15164); assay: Bromodomain binding assay: TRIM24
T8 construct: made in house; host or cells: E. coli host derived from the BL21 strain (T7 phage lysate)
T8 sequence (O15164 899-1004 limits assumed): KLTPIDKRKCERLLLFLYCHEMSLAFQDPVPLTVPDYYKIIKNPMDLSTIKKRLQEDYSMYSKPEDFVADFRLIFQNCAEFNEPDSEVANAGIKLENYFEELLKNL
Procedure: as §1

TRIM33 = biological target: T9, TRIM33 (Homo sapiens, UniProt Q9UPN9); assay: Bromodomain binding assay: TRIM33
T9 construct: made in house; host or cells: E. coli host derived from the BL21 strain (T7 phage lysate)
T9 sequence (Q9UPN9 957-1080 limits assumed): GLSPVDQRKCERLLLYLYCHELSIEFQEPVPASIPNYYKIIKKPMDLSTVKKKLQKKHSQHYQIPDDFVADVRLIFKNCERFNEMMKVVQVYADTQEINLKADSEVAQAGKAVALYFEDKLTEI
Procedure: as §1

[3] = tested on: Asthmatic lung fibroblasts; assay: TGF-β-induced fibrotic response (α-SMA expression) in asthmatic lung fibroblasts; format: cell-based; details: Homo sapiens, Fibroblast; 2 ng/ml TGF-β1, 48 h; Western blot; read-out: Inhibition of α-SMA expression, EC50 (μM), Asthmatic lung fibroblasts
Procedure: Nontransformed, human fetal lung fibroblasts (HFL-1) were obtained from ATCC (Manassas, Va.) and maintained in F12K media containing 10% (v/v) charcoal-dextran treated, heat inactivated FBS (Omega Scientific, Tarzana, Calif.). Primary lung fibroblasts isolated from a patient diagnosed with asthma were obtained from Lonza (Allendale, N.J.) and maintained in FGM-2 fibroblast growth medium (Lonza). Cells were seeded at a density to provide 50-60% confluence after an overnight incubation at 37° C. in a humidified atmosphere at 5% CO2. […] Protein content was determined using the Bio-Rad Dc Protein kit (Bio-Rad Laboratories, Hercules, Calif.), and normalized prior to adding an equal volume of 2× Laemmli sample buffer (Sigma). Proteins in the whole cell lysates were resolved via SDS-PAGE gel electrophoresis, and α-SMA was detected via Western blot analysis using a rabbit anti-human α-SMA polyclonal antibody (Abcam, Cambridge, Mass.). α-SMA signal was normalized to the signal of β-actin as detected using mouse anti-human […] antibody (Cell Signaling Technology). DyLight 680 and 800 conjugated secondary antibodies were used and the infrared signals were detected using the Odyssey Imaging System (LI-COR Biotechnology, Lincoln, Nebr.).

T1 sequence (Q09472 1045-1161): as the sequence (Q92793 1081-1197) above, with R1K, N51S, V77I, F97Y, A102S counted along it

| SMILES | Kd [1] | Kd [2] | Kd (BRD2) | Kd (BRD3) | Kd (BRD8) | Kd (PBRM1) | Kd (SMARCA2) | Kd (TRIM24) | Kd (TRIM33) | EC50 [3] |
| --- | --- | --- | --- | --- | --- | --- | --- | --- | --- | --- |
| CCOc1cc(C(=O)N[C@H]2CC[C@H](O)CC2)ccc1Nc1cc2c(cn1)N(C)C(=O)c1ccccc1N2C [Compound T62] | 1100 nM | 1200 nM | 93 nM | 110 nM | > 20 µM | > 20 µM | > 20 µM | > 20 µM | > 20 µM |  |
| CCOc1cc(C(=O)N2CCC(N3CCCC3)CC2)ccc1Nc1cc2c(cn1)N(C)C(=O)c1ccccc1N2C [Compound 46, 3-(2-Ethoxy-4-(4-(pyrrolidin-1-yl)piperidine-1-carbonyl)phenylamino)-5,11-dimethyl-5H-benzo[e]pyrido[3,4-b][1,4]diazepin-10(11H)-one] | 7500 nM | 3300 nM | 55 nM | 33 nM | > 20 µM | > 20 µM | > 20 µM | > 20 µM | > 20 µM |  |
| CCOc1cc(C(=O)N2CC[C@@H](N(C)C)C2)ccc1Nc1cc2c(cn1)N(C)C(=O)c1ccccc1N2C [Compound 115] |  |  |  |  |  |  |  |  |  | 1.37 µM |
| CCOc1cc(C(=O)N2CCC(N3CCN(C)CC3)CC2)ccc1Nc1cc2c(cn1)N(C)C(=O)c1ccccc1N2C [Compound 61] |  |  |  |  |  |  |  |  |  | 3.69 µM |
